# Source: ChEMBL document CHEMBL1201862, “PubChem BioAssay data set” (2004)
# Active and inactive are the calls of the source.
# Legend:
# cells [1] = assay type: functional, cell-based
# [2] = Trypanosoma cruzi growth suppression in host cells – NIH3T3 host cells, beta-gal luminescence, confirmation (AID 2044); assay type: functional, cell-based;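 note: intracellular parasites grown in NIH/3T3 mouse fibroblasts as host cells; luminescent beta-galactosidase reporter signal from transgenic T. cruzi replicating inside host cells; inhibitors lower the luminescence signal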
# [3] = target: T1, Probable nicotinate-nucleotide adenylyltransferase (Staphylococcus aureus (strain N315), UniProt P65502); assay type: functional, Staphylococcus aureus subsp. aureus N315; details: read-out: IC50_Mean;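 for IC50 Mean: confirmatory dose-response retesting of NadD inhibitor hits first found in an ultra-high-throughput screen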
# Streptokinase A = target: T2, Streptokinase A (Streptococcus pyogenes serotype M1, UniProt P10520); assay: viability-normalized secreted streptokinase activity reduction – plasminogen activation absorbance, OD405, dose response (AID 1914); assay type: functional, Streptococcus pyogenes M1 GAS;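 note: secreted streptokinase activity via plasminogen activation per viability signal from cell pellet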
# T2 sequence (P10520 whole entry): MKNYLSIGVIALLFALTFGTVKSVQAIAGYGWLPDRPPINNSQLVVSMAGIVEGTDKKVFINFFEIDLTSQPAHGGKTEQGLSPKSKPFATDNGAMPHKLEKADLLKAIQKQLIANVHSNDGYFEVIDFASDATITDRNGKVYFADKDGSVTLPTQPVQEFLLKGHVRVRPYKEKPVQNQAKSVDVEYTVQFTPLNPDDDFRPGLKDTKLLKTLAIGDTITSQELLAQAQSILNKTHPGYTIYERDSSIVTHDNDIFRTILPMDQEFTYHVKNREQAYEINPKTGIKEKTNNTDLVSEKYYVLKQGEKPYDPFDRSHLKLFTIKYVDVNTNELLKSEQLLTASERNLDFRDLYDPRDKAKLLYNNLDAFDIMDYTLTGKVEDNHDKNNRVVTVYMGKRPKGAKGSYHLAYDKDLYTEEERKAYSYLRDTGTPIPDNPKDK
# [4] = NIH3T3 cell viability loss – ATP luminescence, mouse fibroblasts, counter-screen, dose response (AID 2010); assay type: functional, cell-based;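 note: cells exposed to compound for about 90 hours before reading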
# INS1 = assay: INS-1E survival protection against cytokine death – cell-based, luminescence, retest, dose response (AID 449756); assay type: functional; details: Rattus norvegicus;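 note: cell death triggered by IL-1 beta plus TNF-alpha plus IFN-gamma mixture; protective hits raise ATP signal compared with cytokine alone wells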
# cells [5] = assay type: functional, cell-based; remark: listed apart in the source
# [6] = system: Streptococcus sp. 'group A'; assay: Streptococcus pyogenes SK(-)GAS viability under kanamycin – luminescence, BacTiterGlo, confirmation, counter-screen for streptokinase expression inhibitor project, dose response (AID 1900); assay type: functional, organism-based
# [7] = target: T1, Probable nicotinate-nucleotide adenylyltransferase; assay type: functional, Staphylococcus aureus subsp. aureus N315
# Streptococcus = assay: GAS UMAA2166 growth inhibition – luminescence, BacTiterGlo, counter-screen for streptokinase expression inhibitor project, dose response (AID 1915); assay type: functional, organism-based;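 note: potency for reduction of bacterial viability or growth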
# Nonstructural protein 1 = Nonstructural protein 1 (Influenza A virus, UniProt Q194T2); assay type: functional, Influenza A virus (A/California/07/2009(H1N1))
# Cytochrome P450 2D6 = Cytochrome P450 2D6 (Homo sapiens, UniProt P10635);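 note: CYP2D6 member of a cytochrome P450 panel assay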
# [8] = target: T3, Corticotropin-releasing factor receptor 2/Corticotropin-releasing factor-binding protein (Homo sapiens, UniProt P24387+Q13324); assay: activators of CRF receptor 2 with binding protein – uHTS hits, confirmation (AID 602473); assay type: functional; details: read-out: EC50_Mean
# T3 sequence (Q13324 whole entry): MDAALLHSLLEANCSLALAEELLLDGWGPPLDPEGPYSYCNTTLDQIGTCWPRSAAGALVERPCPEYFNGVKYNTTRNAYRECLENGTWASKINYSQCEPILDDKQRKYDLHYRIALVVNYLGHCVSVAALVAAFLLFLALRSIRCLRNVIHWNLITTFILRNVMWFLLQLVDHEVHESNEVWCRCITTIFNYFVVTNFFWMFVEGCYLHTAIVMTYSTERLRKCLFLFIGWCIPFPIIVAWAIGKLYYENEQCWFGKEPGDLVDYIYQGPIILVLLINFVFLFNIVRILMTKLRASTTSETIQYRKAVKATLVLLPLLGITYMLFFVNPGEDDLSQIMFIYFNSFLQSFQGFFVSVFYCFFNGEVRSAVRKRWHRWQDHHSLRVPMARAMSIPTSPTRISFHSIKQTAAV
# T3 sequence (P24387 whole entry): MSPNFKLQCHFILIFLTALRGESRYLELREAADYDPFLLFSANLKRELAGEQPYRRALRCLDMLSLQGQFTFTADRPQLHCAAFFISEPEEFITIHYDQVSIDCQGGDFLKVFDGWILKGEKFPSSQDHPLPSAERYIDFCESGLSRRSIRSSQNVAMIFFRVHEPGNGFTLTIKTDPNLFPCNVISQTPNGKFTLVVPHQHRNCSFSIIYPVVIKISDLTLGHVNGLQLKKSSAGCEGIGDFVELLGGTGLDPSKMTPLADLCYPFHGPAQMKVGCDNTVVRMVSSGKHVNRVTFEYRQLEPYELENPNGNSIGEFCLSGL
# [9] = target: T3, Corticotropin-releasing factor receptor 2/Corticotropin-releasing factor-binding protein; assay: Dose Response confirmation of uHTS hits for small molecule antagonists of the CRF-binding protein and CRF-R2 receptor complex.; assay type: functional; details: read-out: IC50_Mean
# Cytochrome P450 3A4 = Cytochrome P450 3A4 (Homo sapiens, UniProt P08684);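 note: CYP3A4 tested as one member of a cytochrome P450 panel screen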
# [10] = blockers of CRF-binding protein–CRF-R2 complex – cell-based, uHTS hits, 384-well, dose response (AID 651639); assay type: functional, Homo sapiens; details: read-out: IC50_Mean
# Cytochrome P450 1A2 = target: T4, Cytochrome P450 1A2 (Homo sapiens, UniProt P05177);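 note: PubChem cytochrome P450 panel assay, CYP1A2 panel member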
# T4 sequence (P05177 whole entry): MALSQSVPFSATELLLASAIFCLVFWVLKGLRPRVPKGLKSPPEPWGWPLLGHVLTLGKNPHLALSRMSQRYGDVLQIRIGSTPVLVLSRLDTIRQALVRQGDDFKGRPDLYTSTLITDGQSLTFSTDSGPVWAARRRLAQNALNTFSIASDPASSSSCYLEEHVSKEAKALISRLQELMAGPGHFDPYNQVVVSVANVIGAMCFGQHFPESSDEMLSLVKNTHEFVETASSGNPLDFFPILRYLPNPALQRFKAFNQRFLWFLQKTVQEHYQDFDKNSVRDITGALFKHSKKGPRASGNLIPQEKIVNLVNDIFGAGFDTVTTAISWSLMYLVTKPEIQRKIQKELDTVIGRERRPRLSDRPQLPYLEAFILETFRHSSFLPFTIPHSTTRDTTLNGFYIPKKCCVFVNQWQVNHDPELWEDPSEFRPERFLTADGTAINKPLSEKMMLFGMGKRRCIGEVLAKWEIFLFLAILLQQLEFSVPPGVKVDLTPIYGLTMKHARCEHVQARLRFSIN
# [11] = target: Luciferin 4-monooxygenase (Photinus pyralis, UniProt P08659); assay: inhibition of purified Photinus pyralis luciferase – biochemical, luminescence, dose response (AID 1891)
# [12] = Luminescence Cell-Based Dose Confirmation HTS to Identify Inhibitors of Platelet Dense Granule Release. [Related pubchem assays: 1663 (Primary HTS), 1678 (Summary of Project)]; assay type: functional
# [13] = viability loss in HepG2 hepatoma cells – cell-based, ATP luminescence, cherry-pick, activator set 2, cytotoxicity control, dose response (AID 1053143); assay type: functional
# [14] = viability of uninfected HEp-2 cells – cell-based, HTS, cytotoxicity control for RSV inhibitor project, dose response (AID 2410); assay type: functional; details: human respiratory syncytial virus
# Fatty acid synthase [15] = target: T5, Fatty acid synthase (Homo sapiens, UniProt P49327); assay: inhibition of human FAS-TE enzyme activity – biochemical, endpoint fluorescence intensity, uHTS hits, dose response (AID 624327); assay type: functional;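 note: fluorescence from hydrolysis of an O-methyl fluorescein acyl ester substrate by the enzyme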
# cells [16] = assay: cells
# Fatty acid synthase [17] = target: T5, Fatty acid synthase; assay: inhibition of human FAS-TE enzyme activity – biochemical, kinetic fluorescence intensity, dose response (AID 624326); assay type: functional;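 note: rate of fluorescence rise from hydrolysis of a fluorogenic O-methyl fluorescein ester substrate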
# [18] = target: 26S proteasome non-ATPase regulatory subunit 14 (Homo sapiens, UniProt O00487); assay: inhibition of proteasome subunit RPN11 – biochemical, fluorescence polarization, uHTS hits, confirmation (AID 602368); assay type: functional
# [19] = target: T6, Carboxy-terminal domain RNA polymerase II polypeptide A small phosphatase 1 (Homo sapiens, UniProt Q9GZU7); assay: CTDSP1 inhibitors, concentration-response, biochemical, absorbance readout, ultra-high-throughput screen actives (AID 540297); assay type: functional
# T6 sequence (Q9GZU7 whole entry): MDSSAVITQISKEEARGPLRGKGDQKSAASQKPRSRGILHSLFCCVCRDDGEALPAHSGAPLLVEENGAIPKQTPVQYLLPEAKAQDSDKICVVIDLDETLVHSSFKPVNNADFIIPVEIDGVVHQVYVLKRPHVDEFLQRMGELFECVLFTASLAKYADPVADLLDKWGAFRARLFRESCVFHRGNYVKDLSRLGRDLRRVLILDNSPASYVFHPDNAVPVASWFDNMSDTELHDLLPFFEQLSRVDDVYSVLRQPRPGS
# Prothrombin = Prothrombin (Bos taurus, UniProt P00735); assay: thrombin protease inhibitors – biochemical, fluorescence polarization, uHTS hits, dose response (AID 602369); assay type: functional
# [20] = target: 72 kDa type IV collagenase (Homo sapiens, UniProt P08253); assay: Dose Response validation of uHTS RPN11 inhibitor hits using a MMP-2 Fluorescence assay.; assay type: functional
# Caspase-6 = target: T7, Caspase-6 (Homo sapiens, UniProt P55212); assay: inhibition of CASP6 peptide cleavage – biochemical, VEID-R110 fluorescence, cherry-pick, dose response (AID 720632)
# T7 sequence (P55212 whole entry): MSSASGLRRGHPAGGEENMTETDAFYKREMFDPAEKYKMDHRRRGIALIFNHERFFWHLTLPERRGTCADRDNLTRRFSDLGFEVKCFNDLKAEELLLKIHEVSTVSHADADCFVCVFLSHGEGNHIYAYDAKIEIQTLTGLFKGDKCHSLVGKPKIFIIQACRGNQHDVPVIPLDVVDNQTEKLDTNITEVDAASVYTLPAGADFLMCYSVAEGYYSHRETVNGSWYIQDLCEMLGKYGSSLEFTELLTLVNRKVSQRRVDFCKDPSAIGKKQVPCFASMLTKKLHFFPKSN
# [21] = blockade of melanocortin 4 receptor signaling – cell-based, plate reader, cherry pick, counter-screen for LGR2 antagonist project, dose response (AID 743444); assay type: functional;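 note: transfected HEK 293 cells stimulated with alpha-MSH peptide; potency of inhibitors of the alpha-MSH evoked signal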
# [22] = DRD fibroblast viability loss – cell-based, non-viral oncogenic, luminescence, dose response (AID 1934); assay type: functional; details: Homo sapiens
# BJ [23] = assay: cells; assay type: functional, cell-based; details: Homo sapiens
# [24] = luciferase reporter signal suppression in cells – H4 neuroglioma cells, luminescence, dose response (AID 1990); assay type: functional, cell-based
# HEK293 = assay: EBV LMP1 TES2 canonical NF-kB signalling blockers – cell-based, HEK293, luciferase, cherry-pick, dose response (AID 588343); assay type: functional; details: Homo sapiens
# BJ [25] = assay: BJ-TERT fibroblast viability loss – cell-based, RAS-independent, luminescence, dose response (AID 1933); assay type: functional; details: Homo sapiens
# BJ [26] = assay: BJ-TERT-LT-ST fibroblast viability loss – cell-based, RAS-independent, luminescence, dose response (AID 1935); assay type: functional; details: Homo sapiens;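 note: BJ fibroblasts immortalized with TERT plus LT and ST oncogenes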
# [27] = Luminescence Cell-Based Dose Response HTS to Identify Inhibitors of 5'UTR Stem-Loop Driven Prion Protein mRNA Translation in H4 Neuroglioblastoma Cells. [Related pubchem assays: 1827 (Project Summary), 1813 (Primary HTS)]; assay type: functional
# T1 sequence (P65502 whole entry): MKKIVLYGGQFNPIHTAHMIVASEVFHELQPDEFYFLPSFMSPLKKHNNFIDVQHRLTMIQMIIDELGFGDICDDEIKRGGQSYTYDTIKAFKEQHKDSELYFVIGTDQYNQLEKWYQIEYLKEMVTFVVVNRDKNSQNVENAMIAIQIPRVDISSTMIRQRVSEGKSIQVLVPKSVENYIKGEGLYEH
# T5 sequence (P49327 whole entry): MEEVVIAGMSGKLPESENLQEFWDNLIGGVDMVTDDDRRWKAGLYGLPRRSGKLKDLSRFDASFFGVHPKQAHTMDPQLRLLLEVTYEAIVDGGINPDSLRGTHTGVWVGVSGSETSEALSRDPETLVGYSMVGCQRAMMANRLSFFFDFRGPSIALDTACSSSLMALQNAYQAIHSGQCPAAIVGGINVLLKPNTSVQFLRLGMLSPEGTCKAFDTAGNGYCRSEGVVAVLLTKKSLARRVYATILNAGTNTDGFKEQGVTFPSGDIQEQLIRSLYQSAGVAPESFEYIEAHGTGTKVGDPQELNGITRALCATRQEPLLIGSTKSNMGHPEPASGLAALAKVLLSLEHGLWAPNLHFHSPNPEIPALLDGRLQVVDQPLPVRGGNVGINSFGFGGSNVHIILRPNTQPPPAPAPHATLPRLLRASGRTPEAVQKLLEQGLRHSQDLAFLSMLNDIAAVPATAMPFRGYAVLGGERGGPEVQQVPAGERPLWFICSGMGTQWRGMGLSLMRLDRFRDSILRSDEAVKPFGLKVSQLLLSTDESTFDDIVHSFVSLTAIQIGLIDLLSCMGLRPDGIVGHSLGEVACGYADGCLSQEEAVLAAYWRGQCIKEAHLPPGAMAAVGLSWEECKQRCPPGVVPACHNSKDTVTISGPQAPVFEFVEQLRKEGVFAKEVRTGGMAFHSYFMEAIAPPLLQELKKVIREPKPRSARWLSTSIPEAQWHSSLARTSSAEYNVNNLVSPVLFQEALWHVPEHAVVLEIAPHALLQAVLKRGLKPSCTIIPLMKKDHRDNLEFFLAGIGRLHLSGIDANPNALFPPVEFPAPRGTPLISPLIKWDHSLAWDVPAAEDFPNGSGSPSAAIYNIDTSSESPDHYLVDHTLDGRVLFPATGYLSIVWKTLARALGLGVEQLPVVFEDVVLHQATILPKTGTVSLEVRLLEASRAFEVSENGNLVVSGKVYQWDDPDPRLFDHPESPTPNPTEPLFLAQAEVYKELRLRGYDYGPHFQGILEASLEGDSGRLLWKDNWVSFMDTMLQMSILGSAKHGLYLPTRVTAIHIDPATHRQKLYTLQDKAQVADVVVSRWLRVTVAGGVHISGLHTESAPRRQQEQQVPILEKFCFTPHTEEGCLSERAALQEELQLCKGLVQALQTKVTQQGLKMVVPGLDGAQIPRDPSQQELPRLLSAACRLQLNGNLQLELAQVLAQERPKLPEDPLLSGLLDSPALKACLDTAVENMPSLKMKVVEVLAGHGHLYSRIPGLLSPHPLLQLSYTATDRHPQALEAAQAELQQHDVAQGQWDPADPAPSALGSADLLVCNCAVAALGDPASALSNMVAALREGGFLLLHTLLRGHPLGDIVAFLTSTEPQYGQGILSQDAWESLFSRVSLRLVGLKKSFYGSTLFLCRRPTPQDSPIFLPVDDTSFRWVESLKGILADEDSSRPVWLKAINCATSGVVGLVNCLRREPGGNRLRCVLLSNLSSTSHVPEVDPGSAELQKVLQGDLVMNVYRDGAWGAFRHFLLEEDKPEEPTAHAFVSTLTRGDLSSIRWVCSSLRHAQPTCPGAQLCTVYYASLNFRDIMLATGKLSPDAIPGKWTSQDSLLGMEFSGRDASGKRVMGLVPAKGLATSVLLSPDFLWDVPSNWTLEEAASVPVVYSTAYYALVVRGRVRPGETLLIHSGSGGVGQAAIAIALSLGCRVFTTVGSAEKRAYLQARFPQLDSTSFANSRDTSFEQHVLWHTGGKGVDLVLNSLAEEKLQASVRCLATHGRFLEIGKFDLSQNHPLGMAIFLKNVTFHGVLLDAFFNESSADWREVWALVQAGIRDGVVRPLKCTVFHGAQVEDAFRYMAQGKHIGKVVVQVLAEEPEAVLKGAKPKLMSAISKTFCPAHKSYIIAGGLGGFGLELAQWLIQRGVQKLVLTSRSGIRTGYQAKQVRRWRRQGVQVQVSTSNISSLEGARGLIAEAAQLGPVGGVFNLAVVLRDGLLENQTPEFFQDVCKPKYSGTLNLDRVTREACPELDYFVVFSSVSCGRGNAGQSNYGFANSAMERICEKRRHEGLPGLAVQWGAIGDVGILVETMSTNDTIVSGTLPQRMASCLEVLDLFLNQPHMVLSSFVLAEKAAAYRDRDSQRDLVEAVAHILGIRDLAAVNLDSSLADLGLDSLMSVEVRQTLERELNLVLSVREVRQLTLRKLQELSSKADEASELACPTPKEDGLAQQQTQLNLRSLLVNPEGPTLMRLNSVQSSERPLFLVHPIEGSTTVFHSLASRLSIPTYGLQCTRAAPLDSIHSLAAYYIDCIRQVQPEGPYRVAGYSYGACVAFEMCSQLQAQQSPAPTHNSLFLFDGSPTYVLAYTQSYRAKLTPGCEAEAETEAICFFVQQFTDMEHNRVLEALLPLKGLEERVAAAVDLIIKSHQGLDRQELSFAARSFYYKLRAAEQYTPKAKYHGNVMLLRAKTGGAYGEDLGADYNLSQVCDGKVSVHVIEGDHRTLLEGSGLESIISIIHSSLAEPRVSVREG
# Chain of Nonstructural protein 1 (Q194T2 whole entry): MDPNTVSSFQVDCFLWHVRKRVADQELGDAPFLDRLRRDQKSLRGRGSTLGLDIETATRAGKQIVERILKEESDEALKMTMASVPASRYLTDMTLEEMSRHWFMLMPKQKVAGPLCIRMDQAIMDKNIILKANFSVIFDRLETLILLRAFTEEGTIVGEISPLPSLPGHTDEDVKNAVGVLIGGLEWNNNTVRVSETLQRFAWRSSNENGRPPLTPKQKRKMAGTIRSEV
# Chain of Luciferin 4-monooxygenase (P08659 whole entry): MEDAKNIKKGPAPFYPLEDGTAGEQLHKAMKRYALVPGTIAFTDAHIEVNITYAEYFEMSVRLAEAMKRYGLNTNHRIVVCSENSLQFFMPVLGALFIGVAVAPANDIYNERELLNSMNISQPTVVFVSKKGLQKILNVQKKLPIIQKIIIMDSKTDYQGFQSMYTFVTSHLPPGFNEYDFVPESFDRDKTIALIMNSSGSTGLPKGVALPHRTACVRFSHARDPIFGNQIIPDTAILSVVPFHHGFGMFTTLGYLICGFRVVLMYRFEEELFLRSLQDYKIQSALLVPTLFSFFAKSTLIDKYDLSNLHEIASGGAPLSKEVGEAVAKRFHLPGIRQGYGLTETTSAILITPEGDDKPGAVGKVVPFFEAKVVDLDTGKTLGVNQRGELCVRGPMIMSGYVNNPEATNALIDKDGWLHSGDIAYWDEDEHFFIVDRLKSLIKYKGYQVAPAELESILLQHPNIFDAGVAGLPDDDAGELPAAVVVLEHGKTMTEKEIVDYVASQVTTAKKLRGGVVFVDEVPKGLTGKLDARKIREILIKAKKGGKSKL
# Chain of Cytochrome P450 2D6 (P10635 whole entry): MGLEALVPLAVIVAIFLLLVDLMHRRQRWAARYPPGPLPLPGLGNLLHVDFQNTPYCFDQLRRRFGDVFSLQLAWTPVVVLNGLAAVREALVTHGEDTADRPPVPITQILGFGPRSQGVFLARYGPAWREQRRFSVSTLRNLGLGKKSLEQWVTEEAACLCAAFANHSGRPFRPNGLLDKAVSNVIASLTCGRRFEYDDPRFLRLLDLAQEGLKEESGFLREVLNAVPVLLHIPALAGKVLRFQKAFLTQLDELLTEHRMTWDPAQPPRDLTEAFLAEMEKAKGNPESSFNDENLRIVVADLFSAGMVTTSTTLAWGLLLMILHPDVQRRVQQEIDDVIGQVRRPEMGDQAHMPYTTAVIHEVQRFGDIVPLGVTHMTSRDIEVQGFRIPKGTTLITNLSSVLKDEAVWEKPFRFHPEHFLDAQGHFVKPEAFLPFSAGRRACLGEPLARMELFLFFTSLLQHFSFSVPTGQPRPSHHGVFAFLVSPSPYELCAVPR
# Chain of Cytochrome P450 3A4 (P08684 whole entry): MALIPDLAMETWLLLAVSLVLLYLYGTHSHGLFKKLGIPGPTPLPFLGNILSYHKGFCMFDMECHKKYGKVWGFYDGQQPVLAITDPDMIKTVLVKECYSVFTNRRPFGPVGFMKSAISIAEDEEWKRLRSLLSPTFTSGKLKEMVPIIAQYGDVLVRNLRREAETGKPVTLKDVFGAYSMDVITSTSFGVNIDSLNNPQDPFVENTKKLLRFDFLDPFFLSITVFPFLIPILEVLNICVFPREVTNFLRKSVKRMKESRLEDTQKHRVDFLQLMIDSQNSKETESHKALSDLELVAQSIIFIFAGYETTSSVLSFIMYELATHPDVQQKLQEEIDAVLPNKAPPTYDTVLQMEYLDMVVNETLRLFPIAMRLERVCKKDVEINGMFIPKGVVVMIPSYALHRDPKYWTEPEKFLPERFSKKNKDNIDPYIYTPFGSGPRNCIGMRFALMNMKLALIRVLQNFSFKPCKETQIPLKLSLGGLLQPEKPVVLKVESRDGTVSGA
# Chain of 26S proteasome non-ATPase regulatory subunit 14 (O00487 whole entry, the tested form may be a part): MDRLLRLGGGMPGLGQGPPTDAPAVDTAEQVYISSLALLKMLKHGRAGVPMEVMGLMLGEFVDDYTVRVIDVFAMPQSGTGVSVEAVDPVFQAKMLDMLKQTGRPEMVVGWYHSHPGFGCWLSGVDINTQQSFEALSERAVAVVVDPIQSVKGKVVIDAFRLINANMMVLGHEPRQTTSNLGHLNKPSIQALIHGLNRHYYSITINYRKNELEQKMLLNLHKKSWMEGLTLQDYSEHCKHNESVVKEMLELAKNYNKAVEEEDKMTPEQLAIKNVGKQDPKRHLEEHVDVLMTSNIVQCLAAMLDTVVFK
smiles,measurement,setting,value
Cc1cccc2sc(NNC(=O)c3ccc(S(=O)(=O)N4CCc5ccccc5C4)cc3)nc12,EC50,cells [1],12 µM (active)
same,EC50,[2],0.733 µM (active)
same,IC50,[3],56.7 µM (active)
same,EC50,Streptokinase A,> 150 µM (not active)
same,EC50,[4],2.62 µM (active)
same,AC50,INS1,1.8 µM (active)
same,EC50,cells [5],> 350 µM (not active)
same,EC50,[6],2.4 µM (active)
same,IC50,[7],13.8 µM (active)
same,EC50,Streptococcus,33.6 µM (active)
same,IC50,Nonstructural protein 1,> 100 µM (active)
O=C1CC(c2cccc(F)c2)SC(N(c2ccccc2)c2ccccc2)=N1 (stereo not given),AC50,Cytochrome P450 2D6,25.1 µM (inconclusive)
same,EC50,[8],> 53 µM (inactive)
same,IC50,[9],9.86 µM (active)
same,AC50,Cytochrome P450 3A4,17.8 µM (inconclusive)
same,IC50,[10],16 µM (active)
same,AC50,Cytochrome P450 1A2,8.91 µM (inconclusive)
CCCCOc1ccccc1C1C(C(=O)OC)=CN(CC)C=C1C(=O)OC,EC50,[8],> 53 µM (inactive)
same,IC50,[9],3.74 µM (active)
same,EC50,[11],> 112 µM (not active)
same,IC50,[10],16 µM (active)
same,EC50,[12],> 112 µM (not active)
Brc1c(CSc2nc3ccccc3o2)nc2ncccn12,AC50,[13],> 52 µM (inactive)
Cc1ccc2c(C)nc(N=C(N)NS(=O)(=O)c3ccc([N+](=O)[O-])cc3)nc2c1,CC50,[14],45.4 µM (active)
same,EC50,[2],< 0.1 µM (active)
same,EC50,[4],> 60 µM (not active)
same,IC50,Fatty acid synthase [15],10.9 µM (active)
same,EC50,cells [16],0.273 µM (active)
same,IC50,Fatty acid synthase [17],8.96 µM (active)
Cc1cccc(NC(=O)CNC(=O)CCc2nc3sc4c(c3c(=O)[nH]2)CCCC4)c1C,IC50,[18],7.12 µM (active)
same,IC50,[19],2.66 µM (active)
same,IC50,Prothrombin,43.9 µM (active)
same,IC50,[20],> 100 µM (inactive)
same,AC50,Caspase-6,7.7 µM (active)
CC(=O)Nc1nc(-c2cccc3ccccc23)cs1,EC50,[2],< 0.1 µM (active)
same,EC50,[4],> 60 µM (not active)
same,EC50,cells [16],0.264 µM (active)
COc1ccc(Br)cc1CNC(=O)CN1C(=O)C(c2ccccc2)Oc2cccnc21 (stereo not given),IC50,[3],31.6 µM (active)
same,IC50,[7],14.3 µM (active)
Cc1ccc2nc(-c3ccc(NC(=O)c4cccnc4)cc3)oc2c1,AC50,INS1,4.63 µM (active)
same,AC50,[21],29.2 µM (active)
O=C(CC1N=C2c3ccccc3N=C(SCc3ccc(Cl)cc3)N2C1=O)NCc1ccco1 (stereo not given),IC50,[3],23.6 µM (active)
same,IC50,[7],7.43 µM (active)
CCOC(=O)c1ccc2nc(NC(=O)c3ccco3)sc2c1,AC50,[13],26 µM (active)
C(=N\Nc1nc2ccccc2[nH]1)/c1cccc2cccnc12,EC50,[22],2.33 µM (active)
same,EC50,BJ [23],3.01 µM (active)
same,EC50,cells [1],66.2 µM (active)
same,EC50,[24],5.09 µM (active)
same,AC50,HEK293,2.96 µM (active)
same,EC50,BJ [25],1.53 µM (active)
same,EC50,BJ [26],3.36 µM (active)
same,EC50,cells [5],97.6 µM (active)
same,EC50,[27],> 120 µM (not active)
same,AC50,[13],26 µM (active)
same,IC50,Nonstructural protein 1,13.4 µM (active)
